Measurements as given in PubChem BioAssay (NCI).
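48-hour exposure; five concentrations; linearly interpolated endpoints. TGI marks complete inhibition of growth.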

Legend:
Assay in all cases: NCI anticancer screen, dose series, 48 h
SK-MEL-5 melanoma = system: SK-MEL-5 melanoma
OVCAR-3 ovarian = system: OVCAR-3 ovarian
NCI-H23 lung = system: NCI-H23 lung
CAKI-1 renal = system: CAKI-1 renal
HL-60(TB) leukemia = system: HL-60(TB) leukemia
M19-MEL melanoma = system: M19-MEL melanoma
HCT-15 colon = system: HCT-15 colon
K-562 leukemia = system: K-562 leukemia
XF 498 CNS = system: XF 498 CNS
MOLT-4 leukemia = system: MOLT-4 leukemia
SK-MEL-2 melanoma = system: SK-MEL-2 melanoma
TK-10 renal = system: TK-10 renal
SNB-78 CNS = system: SNB-78 CNS
DMS 273 small cell lung = system: DMS 273 small cell lung
OVCAR-8 ovarian = system: OVCAR-8 ovarian
HCT-116 colon = system: HCT-116 colon
OVCAR-5 ovarian = system: OVCAR-5 ovarian
HOP-18 NSCLC = system: HOP-18 NSCLC
RPMI-8226 leukemia = system: RPMI-8226 leukemia
A549 NSCLC = system: A549 NSCLC
LXFL 529 NSCLC = system: LXFL 529 NSCLC
HOP-62 NSCLC = system: HOP-62 NSCLC
SF-295 CNS = system: SF-295 CNS
DMS 114 small cell lung = system: DMS 114 small cell lung
NCI-H522 lung = system: NCI-H522 lung
CCRF-CEM leukemia = system: CCRF-CEM leukemia
SF-539 CNS = system: SF-539 CNS
SF-268 CNS = system: SF-268 CNS
HOP-92 NSCLC = system: HOP-92 NSCLC
NCI-H460 lung = system: NCI-H460 lung
A498 renal = system: A498 renal
UACC-62 melanoma = system: UACC-62 melanoma
EKVX NSCLC = system: EKVX NSCLC
SNB-19 CNS = system: SNB-19 CNS
SK-OV-3 ovarian = system: SK-OV-3 ovarian
IGROV1 ovarian = system: IGROV1 ovarian
KM12 colon = system: KM12 colon
SW-620 colon = system: SW-620 colon
786-0 renal = system: 786-0 renal
MALME-3M melanoma = system: MALME-3M melanoma
UACC-257 melanoma = system: UACC-257 melanoma
KM20L2 colon = system: KM20L2 colon
DLD-1 colon = system: DLD-1 colon
HT29 colon = system: HT29 colon
UO-31 renal = system: UO-31 renal
U251 CNS = system: U251 CNS
LOX IMVI melanoma = system: LOX IMVI melanoma
SK-MEL-28 melanoma = system: SK-MEL-28 melanoma
M14 melanoma = system: M14 melanoma
HCC-2998 colon = system: HCC-2998 colon
OVCAR-4 ovarian = system: OVCAR-4 ovarian
SR leukemia = system: SR leukemia
COLO 205 colon = system: COLO 205 colon
SNB-75 CNS = system: SNB-75 CNS
SN12C renal = system: SN12C renal
NCI-H226 lung = system: NCI-H226 lung

O=c1cc(-c2ccccc2)oc2cc(OCC(O)COc3ccc4c(=O)cc(-c5ccccc5)oc4c3)ccc12
TGI (SK-MEL-5 melanoma): > 100 µM | TGI (OVCAR-3 ovarian): > 100 µM | TGI (NCI-H23 lung): > 100 µM | TGI (CAKI-1 renal): > 100 µM | TGI (HL-60(TB) leukemia): > 100 µM | TGI (M19-MEL melanoma): > 100 µM | TGI (HCT-15 colon): > 100 µM | TGI (K-562 leukemia): > 100 µM | TGI (XF 498 CNS): 48.1 µM | TGI (MOLT-4 leukemia): > 100 µM | TGI (SK-MEL-2 melanoma): 53.4 µM | TGI (TK-10 renal): > 100 µM | TGI (SNB-78 CNS): 58.9 µM | TGI (DMS 273 small cell lung): > 100 µM | TGI (OVCAR-8 ovarian): > 100 µM | TGI (HCT-116 colon): > 100 µM | TGI (OVCAR-5 ovarian): > 100 µM | TGI (HOP-18 NSCLC): > 100 µM | TGI (RPMI-8226 leukemia): > 100 µM | TGI (A549 NSCLC): > 100 µM | TGI (LXFL 529 NSCLC): > 100 µM | TGI (HOP-62 NSCLC): 24.6 µM | TGI (SF-295 CNS): > 100 µM | TGI (DMS 114 small cell lung): > 100 µM | TGI (NCI-H522 lung): > 100 µM | TGI (CCRF-CEM leukemia): > 100 µM | TGI (SF-539 CNS): 57 µM | TGI (SF-268 CNS): 90.3 µM | TGI (HOP-92 NSCLC): 95.5 µM | TGI (NCI-H460 lung): > 100 µM | TGI (A498 renal): > 100 µM | TGI (UACC-62 melanoma): > 100 µM | TGI (EKVX NSCLC): > 100 µM | TGI (SNB-19 CNS): 53.6 µM | TGI (SK-OV-3 ovarian): 76.7 µM | TGI (IGROV1 ovarian): > 100 µM | TGI (KM12 colon): > 100 µM | TGI (SW-620 colon): > 100 µM | TGI (786-0 renal): 52 µM | TGI (MALME-3M melanoma): > 100 µM | TGI (UACC-257 melanoma): > 100 µM | TGI (KM20L2 colon): > 100 µM | TGI (DLD-1 colon): > 100 µM | TGI (HT29 colon): > 100 µM | TGI (UO-31 renal): > 100 µM | TGI (U251 CNS): 63.1 µM | TGI (LOX IMVI melanoma): > 100 µM | TGI (SK-MEL-28 melanoma): > 100 µM | TGI (M14 melanoma): > 100 µM

Cc1c(-c2ccccc2)c(=O)oc2ccc(Cl)cc12
TGI (SK-MEL-5 melanoma): > 100 µM | TGI (OVCAR-3 ovarian): > 100 µM | TGI (NCI-H23 lung): > 100 µM | TGI (HL-60(TB) leukemia): > 100 µM | TGI (M19-MEL melanoma): > 100 µM | TGI (HCT-15 colon): > 100 µM | TGI (K-562 leukemia): > 100 µM | TGI (MOLT-4 leukemia): > 100 µM | TGI (SK-MEL-2 melanoma): > 100 µM | TGI (TK-10 renal): > 100 µM | TGI (SNB-78 CNS): > 100 µM | TGI (DMS 273 small cell lung): > 100 µM | TGI (OVCAR-8 ovarian): > 100 µM | TGI (HCT-116 colon): > 100 µM | TGI (OVCAR-5 ovarian): > 100 µM | TGI (HOP-18 NSCLC): > 100 µM | TGI (HCC-2998 colon): > 100 µM | TGI (RPMI-8226 leukemia): > 100 µM | TGI (OVCAR-4 ovarian): > 100 µM | TGI (A549 NSCLC): > 100 µM | TGI (SR leukemia): > 100 µM | TGI (LXFL 529 NSCLC): > 100 µM | TGI (HOP-62 NSCLC): > 100 µM | TGI (SF-295 CNS): > 100 µM | TGI (DMS 114 small cell lung): > 100 µM | TGI (NCI-H522 lung): > 100 µM | TGI (CCRF-CEM leukemia): > 100 µM | TGI (SF-539 CNS): > 100 µM | TGI (SF-268 CNS): > 100 µM | TGI (HOP-92 NSCLC): > 100 µM | TGI (NCI-H460 lung): > 100 µM | TGI (A498 renal): > 100 µM | TGI (UACC-62 melanoma): > 100 µM | TGI (EKVX NSCLC): > 100 µM | TGI (COLO 205 colon): > 100 µM | TGI (SNB-19 CNS): > 100 µM | TGI (SK-OV-3 ovarian): > 100 µM | TGI (SNB-75 CNS): 43.7 µM | TGI (IGROV1 ovarian): > 100 µM | TGI (KM12 colon): > 100 µM | TGI (SN12C renal): > 100 µM | TGI (SW-620 colon): > 100 µM | TGI (786-0 renal): > 100 µM | TGI (MALME-3M melanoma): > 100 µM | TGI (UACC-257 melanoma): > 100 µM | TGI (DLD-1 colon): > 100 µM | TGI (HT29 colon): > 100 µM | TGI (UO-31 renal): > 100 µM | TGI (U251 CNS): > 100 µM | TGI (LOX IMVI melanoma): > 100 µM | TGI (SK-MEL-28 melanoma): > 100 µM | TGI (NCI-H226 lung): > 100 µM | TGI (M14 melanoma): > 100 µM
